{"source": "patent US10954269B2", "about": "“Anti-inflammatory tripeptides” (Dr. August Wolff Gmbh & Co. KG Arzneimittel, priority 2013, dated 2021)", "key": {"[1]": {"tested_on": "human keratinocyte cell line (HaCaT)", "assay": "Cytokine secretion on protein level in activated human keratinocyte cell line HaCaT (13-plex FACS / Luminex, supernatant)", "assay_type": "cell-based", "details": "for IL-1 cytokine concentration / IL-2 cytokine concentration / IL-4 cytokine concentration / IL-5 cytokine concentration / IL-6 cytokine concentration / IL-9 cytokine concentration / IL-10 cytokine concentration / IL-12p70 cytokine concentration / IL-13 cytokine concentration / IL-17 cytokine concentration / IL-22 cytokine concentration / TNF-α cytokine concentration / IFN-γ cytokine concentration: substance 10^−9M", "outline": "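First, T-cells are isolated from healthy donors' blood. Next, they and HaCaT keratinocytes are activated for 48 h with PMA/Ionomycin or IFN-γ in the presence of tripeptides. Finally, secreted cytokines are quantified in supernatants by 13-plex FACS at 48 and 72 h.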"}, "C57BL/6 mice [2]": {"tested_on": "C57BL/6 mice", "assay": "Vasculitis model in mice (LPS / TNF-α intradermal)", "assay_type": "in vivo", "details": "s.c.", "procedure": "C57BL/6 mice receive an intradermal injection of LPS. On the following day vasculitis is induced by intradermal injection of TNF-α. In addition Evan's blue is injected. 24 hours following the injection of TNF-α mice are scarified. Ear thickness is measured and the degree of vasculitis is assessed by counting petechiae. The content of Evan's blue in the ear tissue is a marker for vascular permeability. Ears are analyzed by histology, FACS and RT-qPCR. […] In histology a reduced inflammatory infiltrate was seen."}, "[3]": {"tested_on": "human keratinocytes (HaCaT)", "assay": "Gene expression of pro-inflammatory cytokines (RT-qPCR) in human keratinocytes (HaCaT)", "assay_type": "cell-based", "details": "HaCaT keratinocytes; RT-qPCR", "excerpt": "Cells were activated with PMA/Ionomycin and treated with PBS, α-MSH, K(D)PT and Examples 3, 8 and 9, respectively, at a concentration of 10^−9 M. Values are normalized to β-actin and are shown relative to the gene expression in PBS-stimulated cells.\nPrimary T-cells were isolated from peripheral blood from healthy volunteers and from secondary lymphatic organs from naïve C57BL/6 mice, respectively. The cells were stimulated with phorbol-12-myristate-13-acetate (PMA)/Ionomycin and interferon-gamma (IFN-γ), respectively, for 48 h to activate the cells. The activated cells release pro-inflammatory cytokines. In parallel a human (HaCaT) keratinocyte cell line was activated with PMA/Ionomycin and IFN-γ, respectively, too. […] At the same time release of anti-inflammatory IL-10 was inhibited. Two days after addition of PMA/Ionomycin and IFN-γ, respectively, the induction of IL-1 secretion was determined in the supernatant for proving that the cells are activated. […] The anti-inflammatory properties of the tripeptides were determined 48 h and 72 h following stimulation. A 13-plex-system based FACS analysis was used for showing the reduced secretion of pro-inflammatory cytokines in the supernatant. Data for IL-1, IL-2, IL-6, IL-12p70 IL-17, IFN-γ and TNF-α are considered to be most relevant. Thus, analysis of the anti-inflammatory properties of the tripeptides is preferably based on the results obtained for these analytes. […] Using this method the gene expression of pro-inflammatory markers like IL-6, IL-17, IFN-γ and TNF-α was determined.\nIn a third experiment murine and human T cells and HaCaT cells were stimulated with PMA/Ionomycin and treated with Examples 14, 15, 16 and 17 at 10^−7 M, 10^−9 M and 10^−11 M. Cytokine concentrations (IFN-γ, IL-17 and IL-10 for T cells and IFN-γ for HaCat) were assessed in the supernatants using the Luminex technology. Expression of genes coding for Il-1β, IL-6 and TNF-α was determined. […] Moreover, concentrations of pro-inflammatory cytokines IFN-γ and IL-17 was reduced in the supernatants whereas the concentration of anti-inflammatory cytokine IL-10 was increased."}, "C57BL/6 mice [4]": {"tested_on": "C57BL/6 mice", "assay": "DSS-induced colitis in mice", "assay_type": "in vivo", "details": "i.p.", "procedure": "Colitis is induced by treatment of C57BL/6 mice with 2.5% dextran sulfate (DSS) in the drinking water for 7 days. Mice are treated with the test item. Weight is monitored daily. At day 8 mice are scarified. A haemocult test is performed. The size of the colon is measured. Colitis is determined using a scoring system in H&E stains. mRNA expression in colon samples is analyzed by RT-qPCR."}, "[5]": {"details": "HaCaT stimulated with PMA/Ionomycin"}}, "note": "[ ]: non-standard residue; d: D form. Aib = CC(C)(N)C(=O)O"}
{"substance": "H-Phe-Pro-[Aib]-OH [Example 13]", "values": [{"measurement": "IL-1 cytokine concentration", "setting": "[1]; HaCaT stimulated with IFN-γ", "result": 0, "unit": "pg/mL"}, {"measurement": "IL-2 cytokine concentration", "setting": "[1]; HaCaT stimulated with IFN-γ", "result": 0, "unit": "pg/mL"}, {"measurement": "IL-4 cytokine concentration", "setting": "[1]; HaCaT stimulated with IFN-γ", "result": 76.13, "unit": "pg/mL"}, {"measurement": "IL-5 cytokine concentration", "setting": "[1]; HaCaT stimulated with IFN-γ", "result": 0, "unit": "pg/mL"}, {"measurement": "IL-6 cytokine concentration", "setting": "[1]; HaCaT stimulated with IFN-γ", "result": 255.5, "unit": "pg/mL"}, {"measurement": "IL-9 cytokine concentration", "setting": "[1]; HaCaT stimulated with IFN-γ", "result": 0, "unit": "pg/mL"}, {"measurement": "IL-10 cytokine concentration", "setting": "[1]; HaCaT stimulated with IFN-γ", "result": 7.59, "unit": "pg/mL"}, {"measurement": "IL-12p70 cytokine concentration", "setting": "[1]; HaCaT stimulated with IFN-γ", "result": 0, "unit": "pg/mL"}, {"measurement": "IL-13 cytokine concentration", "setting": "[1]; HaCaT stimulated with IFN-γ", "result": 0, "unit": "pg/mL"}, {"measurement": "IL-17 cytokine concentration", "setting": "[1]; HaCaT stimulated with IFN-γ", "result": 34.2, "unit": "pg/mL"}, {"measurement": "IL-22 cytokine concentration", "setting": "[1]; HaCaT stimulated with IFN-γ", "result": 0, "unit": "pg/mL"}, {"measurement": "TNF-α cytokine concentration", "setting": "[1]; HaCaT stimulated with IFN-γ", "result": 0, "unit": "pg/mL"}, {"measurement": "IFN-γ cytokine concentration", "setting": "[1]; HaCaT stimulated with PBS", "result": 0, "unit": "pg/mL"}, {"measurement": "IL-1 cytokine concentration", "setting": "[1]; HaCaT stimulated with PBS", "result": 17.16, "unit": "pg/mL"}, {"measurement": "IL-2 cytokine concentration", "setting": "[1]; HaCaT stimulated with PBS", "result": 14.24, "unit": "pg/mL"}, {"measurement": "IL-4 cytokine concentration", "setting": "[1]; HaCaT stimulated with PBS", "result": 132.37, "unit": "pg/mL"}, {"measurement": "IL-5 cytokine concentration", "setting": "[1]; HaCaT stimulated with PBS", "result": 0, "unit": "pg/mL"}, {"measurement": "IL-6 cytokine concentration", "setting": "[1]; HaCaT stimulated with PBS", "result": 74.11, "unit": "pg/mL"}, {"measurement": "IL-9 cytokine concentration", "setting": "[1]; HaCaT stimulated with PBS", "result": 0, "unit": "pg/mL"}, {"measurement": "IL-10 cytokine concentration", "setting": "[1]; HaCaT stimulated with PBS", "result": 74.67, "unit": "pg/mL"}, {"measurement": "IL-12p70 cytokine concentration", "setting": "[1]; HaCaT stimulated with PBS", "result": 0, "unit": "pg/mL"}, {"measurement": "IL-13 cytokine concentration", "setting": "[1]; HaCaT stimulated with PBS", "result": 1948.04, "unit": "pg/mL"}, {"measurement": "IL-17 cytokine concentration", "setting": "[1]; HaCaT stimulated with PBS", "result": 0, "unit": "pg/mL"}, {"measurement": "IL-22 cytokine concentration", "setting": "[1]; HaCaT stimulated with PBS", "result": 0, "unit": "pg/mL"}, {"measurement": "TNF-α cytokine concentration", "setting": "[1]; HaCaT stimulated with PBS", "result": 6.94, "unit": "pg/mL"}, {"measurement": "IFN-γ cytokine concentration", "setting": "[1]; [5]", "result": 0, "unit": "pg/mL"}, {"measurement": "IL-1 cytokine concentration", "setting": "[1]; [5]", "result": 0, "unit": "pg/mL"}, {"measurement": "IL-2 cytokine concentration", "setting": "[1]; [5]", "result": 0, "unit": "pg/mL"}, {"measurement": "IL-4 cytokine concentration", "setting": "[1]; [5]", "result": 91.99, "unit": "pg/mL"}, {"measurement": "IL-5 cytokine concentration", "setting": "[1]; [5]", "result": 0, "unit": "pg/mL"}, {"measurement": "IL-6 cytokine concentration", "setting": "[1]; [5]", "result": 216.69, "unit": "pg/mL"}, {"measurement": "IL-9 cytokine concentration", "setting": "[1]; [5]", "result": 0, "unit": "pg/mL"}, {"measurement": "IL-10 cytokine concentration", "setting": "[1]; [5]", "result": 41.86, "unit": "pg/mL"}, {"measurement": "IL-12p70 cytokine concentration", "setting": "[1]; [5]", "result": 0, "unit": "pg/mL"}, {"measurement": "IL-13 cytokine concentration", "setting": "[1]; [5]", "result": 0, "unit": "pg/mL"}, {"measurement": "IL-17 cytokine concentration", "setting": "[1]; [5]", "result": 21.33, "unit": "pg/mL"}, {"measurement": "IL-22 cytokine concentration", "setting": "[1]; [5]", "result": 0, "unit": "pg/mL"}, {"measurement": "TNF-α cytokine concentration", "setting": "[1]; [5]", "result": 0, "unit": "pg/mL"}, {"measurement": "secretion / expression of pro-inflammatory cytokines (supernatant)", "setting": "[1]; activated human keratinocytes", "result": "decreased expression"}, {"measurement": "ear thickness", "setting": "C57BL/6 mice [2]", "result": "reduction"}, {"measurement": "inflammatory infiltrate in histology", "setting": "C57BL/6 mice [2]", "result": "reduced"}, {"measurement": "number of petechiae", "setting": "C57BL/6 mice [2]", "result": "reduced number"}, {"measurement": "gene expression of pro-inflammatory cytokines", "setting": "[3]", "result": "reduced expression"}, {"measurement": "colon size", "setting": "C57BL/6 mice [4]", "result": "partly normalized"}, {"measurement": "disease in histology", "setting": "C57BL/6 mice [4]", "result": "amelioration"}, {"measurement": "mRNA expression of LY-6G, MPO, IFN-γ, IL-6 and TNF-α (colon)", "setting": "C57BL/6 mice [4]; compared to vehicle control", "result": "reduced"}, {"measurement": "weight loss", "setting": "C57BL/6 mice [4]; compared to vehicle control", "result": "decreased"}]}
